Experimental data taken from ChEMBL document CHEMBL1141432, “Mono- and Di-sesquiterpenoids from Chloranthus spicatus” (2007).
Values after ≈ are worked out from the molar mass of the structure shown.

Tests used:
Candida parapsilosis = assay: Antifungal activity against Candida parapsilosis by NCCLS M27-A method; type: functional; conditions: Lodderomyces parapsilosis
Candida albicans = assay: Antifungal activity against Candida albicans by NCCLS M27-A method; type: functional

CC1=C2C3=C4[C@@](C)(C(=O)[C@@]2(O)OC1=O)[C@@H]1C[C@@H]1[C@@]4(O)C[C@@H]1[C@]32OC(=O)C3=C2C[C@H]2[C@](O)(COC(=O)/C=C(\C)COC(=O)CCC(=O)OC3)[C@H]3C[C@@H]3[C@]12C [CHLORAHOLOLIDE B]
MIC (Candida parapsilosis): > 0.157 µM | MIC (Candida albicans): > 0.157 µM

CC1=C2C3=C4[C@](C)([C@@H]5C[C@@H]5[C@@]4(O)C[C@@H]4[C@]35OC(=O)C3=C5C[C@H]5[C@](O)(COC(=O)/C=C(\C)COC(=O)CCC(=O)OC3)[C@H]3C[C@@H]3[C@]45C)[C@@H](O)[C@@]2(O)OC1=O [CHLORAMULTILIDE B]
MIC (Candida parapsilosis): 0.068 µM (≈ 0.05 µg/mL) | MIC (Candida albicans): 0.068 µM (≈ 0.05 µg/mL)

CC1=C2C3=C4[C@](C)([C@@H]5C[C@@H]5[C@@]4(O)C[C@@H]4[C@]35OC(=O)C3=C5C[C@H]5[C@](O)(COC(=O)/C(C)=C/COC(=O)CCC(=O)OC3)[C@H]3C[C@H]3[C@]45C)[C@@H](O)[C@@]2(O)OC1=O [CHLORAMULTILIDE C]
MIC (Candida parapsilosis): > 0.157 µM | MIC (Candida albicans): > 0.157 µM

C/C=C(\C)C(=O)OC[C@]1(O)[C@H]2C[C@H]2[C@]2(C)[C@@H]3C[C@@]4(O)C5=C(C6=C(C)C(=O)O[C@]6(O)[C@H](O)[C@@]5(C)[C@@H]5C[C@@H]54)[C@@]34OC(=O)C(CO)=C4C[C@@H]12 [CHLORAMULTILIDE D]
MIC (Candida parapsilosis): > 0.157 µM | MIC (Candida albicans): > 0.157 µM
